Assay results as given in patent US8486991B2, “Enantiomerically pure phosphoindoles as HIV inhibitors” (Idenix Pharmaceuticals, Inc., priority 2006, dated 2013).
pIC50: −log10 of the molar value.

Experiments:
[1] = In vitro half-life in liver microsomes, rat; assay type: in vitro ADME; details: microsomes, up to one hour, longer half-lives are extrapolated, n=1
Procedure: (§1) In vitro metabolism was assessed using liver microsomes for all species. Compounds were incubated at 1 μM with liver microsomes for up to one hour. Reported half-lives greater than the total incubation time are extrapolated values. Extracts were assayed for disappearance of parent compound by LC-MS/MS detection.
(§2) Data represents one independent experiment conducted.

[2] = In vitro half-life in liver microsomes, dog; assay type: in vitro ADME; details: microsomes, up to one hour, longer half-lives are extrapolated, n=1
Procedure: as §1, §2

[3] = In vitro half-life in liver microsomes, monkey; assay type: in vitro ADME; details: microsomes, up to one hour, n=1
Procedure: as §1, §2

[4] = In vitro half-life in liver microsomes, human; assay type: in vitro ADME; details: microsomes, up to one hour, longer half-lives are extrapolated, n=1
Procedure: as §1, §2

[5] = target: CYP3A4 (Homo sapiens, UniProt P08684); assay: Recombinant CYP450 inhibition, fluorometric, CYP3A4; assay type: in vitro ADME; design: from tissue; host or cells: pooled human liver microsomes
CYP3A4, sequence (P08684 whole entry, the tested form may be a part): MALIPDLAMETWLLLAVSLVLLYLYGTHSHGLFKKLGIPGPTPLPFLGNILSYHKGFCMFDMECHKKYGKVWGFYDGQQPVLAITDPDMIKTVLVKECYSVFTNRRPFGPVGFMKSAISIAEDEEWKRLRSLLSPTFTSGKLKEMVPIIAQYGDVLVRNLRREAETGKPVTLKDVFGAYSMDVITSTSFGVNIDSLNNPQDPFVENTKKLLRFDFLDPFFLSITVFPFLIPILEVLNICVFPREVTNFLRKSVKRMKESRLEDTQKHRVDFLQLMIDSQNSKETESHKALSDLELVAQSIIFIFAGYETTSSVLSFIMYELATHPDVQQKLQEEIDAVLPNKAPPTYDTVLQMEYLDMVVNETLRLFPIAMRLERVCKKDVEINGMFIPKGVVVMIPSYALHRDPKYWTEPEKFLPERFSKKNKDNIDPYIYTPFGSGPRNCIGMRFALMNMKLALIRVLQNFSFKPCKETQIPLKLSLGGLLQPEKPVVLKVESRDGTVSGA
Procedure: (§3) Compounds were assayed using recombinant human microsomal proteins with fluorometric substrates. Signal was measured with a Fusion plate reader utilizing the appropriate excitation and emission wavelength set to detect the specific metabolite: […]

[6] = system: CYP3A4 (activation of PXR in DPX2 cells); assay: CYP3A4 induction screen in DPX2 cells; assay type: cell-based, human; details: extent compared with rifampicine, mifepristone, androstanol
Text: The potential for in vitro induction of CYP3A4 was screened in DPX2 cells. The DPX2 cell line is a derivative of a human hepatocellular carcinoma cell line (HepG2) transformed with the human pregnane x receptor (PXR) and a reporter gene vector containing the enhancer region of CYP3A4. The potential for in vitro induction of CYP1A2 was screened in CYP1A2-DRE cells. The CYP1A2-DRE cell line is a stably transformed HepG2 cells with dioxin response elements (DRE) and reporter gene containing CYP1A2 promoter elements. The extent of CYP3A4 induction was determined by comparing the activation of PXR obtained with test article to that obtained with rifampicine (potent inducer), mifepristone (moderate inducer) and androstanol (weak inducer). The extent of CYP1A2 induction was determined by comparing the activation of the aryl hydrocarbon receptor (AhR) obtained with test article to that obtained with TCDD (potent inducer), omeprazole (moderate inducer), and 2-acetylaminofluorene (weak inducer).

[7] = target: CYP2C9 (Homo sapiens, UniProt P11712); assay: Recombinant CYP450 inhibition, Luciferin-H, CYP2C9; assay type: in vitro ADME; design: from tissue; host or cells: pooled human liver microsomes; details: highest concentration tested 10 μM
CYP2C9, sequence (P11712 whole entry, the tested form may be a part): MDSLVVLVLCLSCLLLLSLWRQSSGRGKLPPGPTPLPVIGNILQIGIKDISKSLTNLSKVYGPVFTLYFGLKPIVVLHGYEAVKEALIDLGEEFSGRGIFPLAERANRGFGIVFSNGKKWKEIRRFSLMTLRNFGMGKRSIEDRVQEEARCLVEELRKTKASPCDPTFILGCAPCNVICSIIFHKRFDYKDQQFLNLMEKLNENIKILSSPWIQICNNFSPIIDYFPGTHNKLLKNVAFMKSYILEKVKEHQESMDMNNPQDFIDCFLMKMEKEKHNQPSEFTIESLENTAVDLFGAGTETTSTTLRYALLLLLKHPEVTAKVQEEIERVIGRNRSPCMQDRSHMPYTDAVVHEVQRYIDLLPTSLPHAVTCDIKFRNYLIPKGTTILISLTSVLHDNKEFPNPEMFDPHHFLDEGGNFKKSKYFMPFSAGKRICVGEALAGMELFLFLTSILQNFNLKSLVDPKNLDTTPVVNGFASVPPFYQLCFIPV
Procedure: CYP2C9 inhibition was performed by incubating a luminogenic CYP450 substrate Luciferin-H with CYP2C9 and an NADPH regeneration system. Luminescence measured using a Fusion plate reader.

[8] = target: CYP2D6 (Homo sapiens, UniProt P10635); assay: Recombinant CYP450 inhibition, fluorometric, CYP2D6; assay type: in vitro ADME; design: from tissue; host or cells: pooled human liver microsomes; details: recombinant enzyme, read-out: percentage of inhibition at the highest concentration tested, CYP2D6
CYP2D6, sequence (P10635 whole entry): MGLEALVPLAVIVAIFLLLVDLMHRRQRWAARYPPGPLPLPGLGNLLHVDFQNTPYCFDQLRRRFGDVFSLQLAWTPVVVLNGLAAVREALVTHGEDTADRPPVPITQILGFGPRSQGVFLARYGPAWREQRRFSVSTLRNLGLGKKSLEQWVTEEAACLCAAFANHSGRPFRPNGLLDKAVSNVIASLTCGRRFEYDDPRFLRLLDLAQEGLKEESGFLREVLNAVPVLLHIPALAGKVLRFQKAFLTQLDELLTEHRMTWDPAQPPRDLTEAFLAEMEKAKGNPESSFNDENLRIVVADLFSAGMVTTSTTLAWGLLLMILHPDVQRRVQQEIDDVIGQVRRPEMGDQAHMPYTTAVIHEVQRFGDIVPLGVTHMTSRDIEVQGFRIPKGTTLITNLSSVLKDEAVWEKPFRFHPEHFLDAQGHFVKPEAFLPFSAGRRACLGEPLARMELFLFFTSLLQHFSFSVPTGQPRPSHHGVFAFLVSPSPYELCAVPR
Procedure: as §3

Compound | half-life at 1 μM [1] [min] | half-life at 1 μM [2] [min] | half-life at 1 μM [3] [min] | half-life at 1 μM [4] [min] | pIC50 [5] | Induction, DPX2 (CYP3A4) [6] | pIC50 [7] | inhibition at 10 µM [8] [%]
COP(=O)(c1cc(C)cc(/C=C/C#N)c1)c1c(C(N)=O)[nH]c2ccc(Cl)c(F)c12 (racemic) [rac (I + II), 5-chloro-4-fluoro-3-[methyl 3-((E)-2-cyanovinyl)-5-methylphenyl]phosphinoyl-1H-indole-2-carboxamide] | 146 | 287 | 18.4 | 115 | 5.79 | – | – | –
COP(=O)(c1cc(C)cc(/C=C/C#N)c1)c1c(C(N)=O)[nH]c2ccc(Cl)cc12 (racemic) [rac (III + IV), 5-chloro-3-[methyl 3-((E)-2-cyanovinyl)-5-methylphenyl]phosphinoyl-1H-indole-2-carboxamide] | 105 | 257 | 16.3 | 91.2 | 5.64 | Moderate (n = 1) | 5.22 | 16 to 23
